Test results reported in patent US10501562B2, “Co-initiator and co-monomer for use in preparing polymer related compositions, methods of manufacture, and methods of use” (University of Kansas, priority 2015, dated 2019).

Columns and labels:
[1] = during 24 hours; cited from earlier work
[2] = Chemical stability of amine co-initiators by 1H NMR in DMSO-d6/water; format: physicochemical; details: 100 days storage at 25° C., 0.04 M in DMSO-d6/deionized water 80/20 wt/wt
Procedure: The chemical stability of three amine co-initiators (EDMAB, DMAEMA, and TUMA) was characterized by ^1H NMR spectroscopy, which were obtained on a Bruker Advance DRX 500 spectrometer (Bruker AXS Inc., Madison, Wis.) equipped with a broadband probe. Deuterated dimethyl sulfoxide (DMSO-d6)/deionized water (80/20 wt/wt) was used as the solvent. The NMR spectra of 0.04 M amine samples were monitored as a function of storage time at 25° C. The mixed (DMSO/water) solvent was used because of its ability to dissolve EDMAB and TUMA, which are hydrophobic compounds.

degraded (chemical stability) [2]	Compound	degradation in the presence of water [1]
No degradation was detected	CCOC(=O)c1ccc(N(C)C)cc1 [EDMAB, Ethyl-4-(dimethylamino) benzoate]	
No degradation was detected	C=C(C)C(=O)OCCNC(=O)OC(C)CN(CC(C)OC(=O)NCCOC(=O)C(=C)C)CC(C)OC(=O)NCCOC(=O)C(=C)C (stereo not shown) [TUMA, 8-(2-(((2-(methacryloyloxy)ethyl)carbamoyl)oxy)propyl)-6,10-dimethyl-4,12-dioxo-5,11-dioxa-3,8,13-triazapentadecane-1,15-diyl bis(2-methylacrylate)]	

Compound	degraded (chemical stability) [2]	degradation in the presence of water [1]
C=C(C)C(=O)OCCN(C)C [DMAEMA, 2-(dimethylamino) ethyl methacrylate]	37.6%	up to 82%
